We go through one compound from patent US20140288056A1, “METHODS FOR NON-TOXIC TREATMENT FOR DRUG WITHDRAWAL” (DEMERX, INC., priority 2013, published 2014).

For one series, the system named is Sprague-Dawley rats. Description: Fourteen day repeat dose toxicity in rats, oral gavage. The series is classed as in vivo, rat. The protocol: This study was conducted to evaluate the toxicity profile of noribogaine-HCl following oral (gavage) administration to the rat for 14 days following Table 2 below:
Male and female Sprague-Dawley rats, 10/sex/group, were administered 0, 25, 50 or 100 mg/kg noribogaine HCl daily by single oral gavage for 14 days. An additional 5 rats/sex/group in the 0 (control) and 100 mg/kg groups were retained for a 28 day recovery period during which no drug was administered. Six rats/sex/group (3 rats/sex controls) were similarly dosed and sampled on study days 1 and 14 for analysis of noribogaine-HCl concentrations in the blood.

In a further series the test system is dogs. Description: Fourteen day repeat dose toxicity in dogs, oral gavage. The series is classed as in vivo, dog. The protocol:
The objective of this study was to determine the toxicity profile of noribogaine HCl given following oral (gavage) administration to dogs for 14 days according to the following Table 3 below:
(§1) Noribogaine HCl was administered to groups of 4 male and 4 female dogs by single oral gavage daily for 14 days at doses of 0, 0.5, 1.0 and 5.0 mg/kg/day. An additional group of 4 male and 4 female dogs received either the vehicle control or 5.0 mg/kg/day for 14 days and were held for an additional 28 days after cessation of dosing to assess recovery from any potential drug-induced changes. The study was conducted under GLP guidelines and included comprehensive examinations of clinical signs, body weight, clinical pathology parameters, ophthalmologic examinations, ECG recordings and analyses of plasma for bioanalytical measurement of drug levels at appropriate intervals during the study. At the termination of the dosing phase and at the termination of the recovery phase, all dogs were subjected to a complete post-mortem examination including gross examination of major organs and histologic examination of an extensive list of tissues. Additional sections of brain were obtained from cerebrum, cerebellus, brain stem and spinal cord and examined histologically to evaluate potential effects on brain histopathology. In addition, these sections were examined with immunohistochemical stains for GFAP for evidence of gliosis and Calbindin for a more comprehensive examination of cerebellar Purkinje cells.
The only target tissue identified in this study was the lacrimal gland of dogs receiving 5 mg/kg/day. […] There was an associated mononuclear infiltration in the draining mandibular lymph nodes of affected dogs in this dose group. […] There was no clear evidence of local irritation associated with drug treatment in these high dose dogs. […] While slight atrophy was still evident in the acinar cells of the gland after 28 days off drug, no evidence of continuing and ongoing degeneration or cellular infiltration was observed. The NOAEL in this study was 1 mg/kg/day based on the lacrimal gland changes at 5 mg/kg/day.

Another series relates to Sprague-Dawley rat. Description: Single dose toxicity in rats, oral gavage. The series is classed as in vivo. As for the experimental part:
The objective of this study was to determine the toxicity and toxicokinetic profile of noribogaine HCl following a single oral (gavage) administration in the Sprague-Dawley rat. A single dose of 100, 300 and 800 mg/kg (achieved with doses of 400 mg/kg 3 h +/−30 min apart because of the limitations of maximum dose formulation concentration). Five male rats/group were used. […] Hypoactivity, vocalization, chewing movements, changes in respiration/posture, salivation, stimuli sensitivity, tremors, twitches and penile erection occurred prior to death. […] The NOAEL was determined to be 100 mg/kg.

Series [1] is described as follows: Plasma toxicokinetics in dogs, 14 day repeat dose study. The note with it: Group 4 (5.0 mg/kg), male and female dogs, Days 1 and 14. The series is classed as in vivo, dog. As for the experimental part: as §1
A short description of series [2]: Human pharmacokinetic study, single oral dose, fasting healthy volunteers. The series is classed as in vivo. As for the experimental part:
In double blind studies, fasting healthy volunteers (6 per cohort) were treated once orally with a tablet of noribogaine HCl. In escalating cohorts, the volunteers received 3 mg, 10 mg, 30 mg or 60 mg noribogaine.

Each structure is given as a SMILES string.

As to `CC[C@@H]1C[C@H]2CC3c4[nH]c5ccc(O)cc5c4CCN(C2)C31.Cl` [noribogaine HCl], the Body weight change was −2.6% with Sprague-Dawley rats (100 mg/kg high dose, females) and −5.5% with Sprague-Dawley rats (100 mg/kg high dose, males). In addition, the Food consumption change with Sprague-Dawley rats (100 mg/kg high dose, males and females) is on record as −4.7%. Besides, the “Test article-related effects on mortality, clinical signs, ophthalmoscopy, hematology, coagulation parameters, clinical chemistry, urinalysis, gross necropsy or histopathology” value in the series with Sprague-Dawley rats (25, 50 or 100 mg/kg daily for 14 days) was “no test article-related effects”. Also, the “Differences in the brain in sections stained for GFAP or Calbindin” value in the series on Sprague-Dawley rats (14 days oral) is recorded as “No treatment-related differences”. Further, the no-observed-adverse-effect level (NOAEL) with Sprague-Dawley rats (14 days oral, highest dose tested) amounted to 100 mg/kg; in the series on dogs (14 days oral, based on lacrimal gland changes at 5 mg/kg/day), 1 mg/kg/day; with Sprague-Dawley rat (single oral dose, male rats), 100 mg/kg. For the same compound, the Liver weight entry in the series with Sprague-Dawley rats (mid- and high dose groups (50 and 100 mg/kg), considered incidental) is listed as “Minor increases”. Moreover, in the series on dogs (5 mg/kg/day for 14 days), the Lacrimal gland changes result is “slight to moderate atrophy and degeneration of the acinar cells”. For the same compound, the “Lacrimal gland change in recovery group” value in the series on dogs (5 mg/kg/day, 28 days off drug) is reported as “clear evidence of regeneration”. The “Adverse effect in clinical observations, body weights, clinical pathological parameters, ophthalmologic examinations, ECG recordings, or gross lesions at necropsy” value in the series on dogs (0.5, 1.0 and 5.0 mg/kg/day for 14 days, dosing or recovery phase) is listed as “No evidence of adverse effect”. Further, the “Drug-induced effect in any other tissue including brain (histopathology, immunohistochemistry)” value in the series on dogs (14 days oral) is on record as “No evidence of drug-induced effect”. In addition, the Treatment related signs result with Sprague-Dawley rat (100 mg/kg) is listed as “did not show any treatment related signs”. In the series with Sprague-Dawley rat (300 mg/kg, day of treatment, persisted until Day 2), the “Rats with hypoactivity, vocalization, salivation, stimuli sensitivity, loss of limb function and lying on the cage floor” value was 3/5. Also, the Mortality entry with Sprague-Dawley rat (800 mg/kg (two doses of 400 mg/kg 3 h apart), single oral gavage, male rats) was “Mortality occurred in all male rats”. The “Time of mortality after administration of the second dose” value in the series on Sprague-Dawley rat (800 mg/kg group, after second dose of 400 mg/kg) was 2 to 3 h. The “Plasma level at 24 h post-dosing” value in series [1] is given as “significant levels of noribogaine were still detected”. Besides, the Adverse effects result in series [2] (3, 10, 30 or 60 mg single oral tablet) is on record as “no clinically relevant adverse effects were observed”. Besides, the “Dose linearity of parameters” value in series [2] (3 to 60 mg single oral dose) was “linear”.

As usually defined, the NOAEL is the highest dose or exposure tested at which no adverse effect was seen.
